Source: US8623859B2, “Bradykinin B1 antagonists” (Evotec AG, priority 2008, dated 2014)
Counter-ions that a name gives are not always drawn.

Target: T1, human B1 (Homo sapiens, UniProt P46663)
T1 construct: host or cells: CHO-K1
T1 sequence (P46663 1-353): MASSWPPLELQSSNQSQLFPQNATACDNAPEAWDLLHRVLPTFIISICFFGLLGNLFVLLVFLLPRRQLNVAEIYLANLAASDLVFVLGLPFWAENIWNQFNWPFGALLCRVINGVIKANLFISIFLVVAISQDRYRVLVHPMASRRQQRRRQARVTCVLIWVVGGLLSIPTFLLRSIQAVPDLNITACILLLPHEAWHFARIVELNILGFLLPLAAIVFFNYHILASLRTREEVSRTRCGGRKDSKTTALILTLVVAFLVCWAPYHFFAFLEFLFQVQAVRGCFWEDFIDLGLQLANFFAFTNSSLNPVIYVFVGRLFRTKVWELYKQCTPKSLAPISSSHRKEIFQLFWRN
Experiment: Calcium flux assay for Bradykinin B1 antagonist, CHO-K1 cell line expressing human B1
Assay type: cell-based
Details: CHO-K1 cells expressing human B1, agonist Lys-(Des-Arg)-Bradykinin, read-out: Potency (IC50 value against human B1)
Outline: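 Inhibition of B1 agonist-evoked intracellular Ca2+ rise was followed by continuous fluorescence at 538 nm, with integrated, background-normalized signals plotted versus log compound concentration. Test compounds (eight 10-fold dilutions, triplicate, 1% DMSO final) were added 30 min at 25° C beforehand to Fluo-4AM-loaded human B1 CHO-K1 cells in pH 7.4 assay buffer.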

Structure (SMILES)	IC50
COc1cc(C)c(S(=O)(=O)N(C)Cc2nnc(C(=O)N(C)Cc3ccc(CN4CCCC4)cc3)s2)c(C)c1 [Ex 329, 5-({[(4-Methoxy-2,6-dimethylphenyl)sulfonyl](methyl)amino}methyl)-N-methyl-N-[4-(pyrrolidin-1-ylmethyl)benzyl]-1,3,4-thiadiazole-2-carboxamide]	100 to 1000 nM
COc1cc(C)c(S(=O)(=O)N(C)Cc2cc(C(=O)N(C)Cc3ccc(-c4cncnc4)cc3)co2)c(C)c1 [Ex 38, 5-({[(4-methoxy-2,6-dimethylphenyl)sulfonyl](methyl)amino}methyl)-N-methyl-N-(4-pyrimidin-5-ylbenzyl)furan-3-carboxamide]	100 to 1000 nM
COc1cc(C)c(S(=O)(=O)N(Cc2nc(C(=O)N3CCC(O)(COCCN(C)C)CC3)co2)C2CC2)c(C)c1 [Ex 246, N-Cyclopropyl-N-({4-[(4-{[2-(dimethylamino)ethoxy]methyl}-4-hydroxypiperidin-1-yl)carbonyl]-1,3-oxazol-2-yl}methyl)-4-methoxy-2,6-dimethylbenzenesulfonamide trifluoroacetate]	10 to 100 nM
COc1cc(C)c(S(=O)(=O)N(C)Cc2nc(C(=O)N(C)Cc3ccc(CN4CCC(N(C)C)C4)cc3)co2)c(C)c1 (centres unmarked) [Ex 177, N-(4-{[3-(Dimethylamino)pyrrolidin-1-yl]methyl}benzyl)-2-({[(4-methoxy-2,6-dimethylphenyl)sulfonyl](methyl)amino}methyl)-N-methyl-1,3-oxazole-4-carboxamide]	10 to 100 nM
COc1cc(C)c(S(=O)(=O)N(Cc2cc(C(=O)N(C)Cc3ccc(CN4CC(O)C4)cc3)co2)C2CC2)c(C)c1 [Ex 148, 5-({Cyclopropyl[(4-methoxy-2,6-dimethylphenyl)sulfonyl]amino}methyl)-N-{4-[(3-hydroxyazetidin-1-yl)methyl]benzyl}-N-methylfuran-3-carboxamide]	10 to 100 nM
CN(CCc1ccc(C2=NCCN2)cc1)C(=O)c1coc(CN(C2CC2)S(=O)(=O)c2ccccc2C(F)(F)F)n1 [Ex 221, 2-[(Cyclopropyl{[2-(trifluoromethyl)phenyl]sulfonyl}amino)methyl]-N-{2-[4-(4,5-dihydro-1H-imidazol-2-yl)phenyl]ethyl}-N-methyl-1,3-oxazole-4-carboxamide trifluoroacetate]	100 to 1000 nM
COc1cc(C)c(S(=O)(=O)N(C)Cc2cc(C(=O)NCc3ccc(C4=NCC(C)(C)N4)cc3)co2)c(C)c1 [Ex 93, N-[4-(5,5-Dimethyl-4,5-dihydro-1H-imidazol-2-yl)benzyl]-5-({[(4-methoxy-2,6-dimethylphenyl)sulfonyl](methyl)amino}methyl)furan-3-carboxamide trifluoroacetate]	10 to 100 nM
COc1cc(C)c(S(=O)(=O)N(Cc2nc(C(=O)N3CCN(CC4CCN(C(=O)OC(C)(C)C)CC4)CC3)co2)C2CC2)c(C)c1 [Ex 238, trifluoroacetate]	100 to 1000 nM
COc1cc(C)c(S(=O)(=O)N(Cc2cc(C(=O)N3CCN(CC4CCN(C)CC4)CC3)co2)C2CC2)c(C)c1 [Ex 89, N-Cyclopropyl-4-methoxy-2,6-dimethyl-N-{[4-({4-[(1-methylpiperidin-4-yl)methyl]piperazin-1-yl}carbonyl)furan-2-yl]methyl}benzenesulfonamide]	< 10 nM
COc1cc(C)c(S(=O)(=O)N(Cc2nc(C(=O)N3CCN(CCN4CCCC4)CC3)co2)C2CC2)c(C)c1 [Ex 195, N-Cyclopropyl-4-methoxy-2,6-dimethyl-N-[(4-{[4-(2-pyrrolidin-1-ylethyl)piperazin-1-yl]carbonyl}-1,3-oxazol-2-yl)methyl]benzenesulfonamide trifluoroacetate]	< 10 nM
COc1cc(C)c(S(=O)(=O)N(C)Cc2cc(C(=O)NCCc3ccc(CN4CC[C@H](N(C)C)C4)cc3)co2)c(C)c1 [Ex 92, N-[2-(4-{[(3S)-3-(Dimethylamino)pyrrolidin-1-yl]methyl}phenyl)ethyl]-5-({[(4-methoxy-2,6-dimethylphenyl)sulfonyl](methyl)amino}methyl)furan-3-carboxamide, trifluoroacetate]	100 to 1000 nM
COc1cc(C)c(S(=O)(=O)N(Cc2nc(C(=O)N(C)Cc3cccc(CN4CCCC4)c3)co2)C2CC2)c(C)c1 [Ex 77, 2-({Cyclopropyl[(4-methoxy-2,6-dimethylphenyl)sulfonyl]amino}methyl)-N-methyl-N-[3-(pyrrolidin-1-ylmethyl)benzyl]-1,3-oxazole-4-carboxamide]	< 10 nM
COc1cc(C)c(S(=O)(=O)N(Cc2cc(C(=O)N3CCN(CCCN(C)C)CC3)co2)C2CC2)c(C)c1 [Ex 118, N-Cyclopropyl-N-{[4-({4-[3-(dimethylamino)propyl]piperazin-1-yl}carbonyl)furan-2-yl]methyl}-4-methoxy-2,6-dimethylbenzenesulfonamide trifluoroacetate]	10 to 100 nM
COc1cc(C)c(S(=O)(=O)N(Cc2nc(C(=O)N3CC4CCN(C5CN6CCC5CC6)CC4C3)co2)C2CC2)c(C)c1 (centres unmarked) [Ex 207, N-[(4-{[5-(1-Azabicyclo[2.2.2]oct-3-yl)octahydro-2H-pyrrolo[3,4-c]pyridin-2-yl]carbonyl}-1,3-oxazol-2-yl)methyl]-N-cyclopropyl-4-methoxy-2,6-dimethylbenzenesulfonamide trifluoroacetate]	< 10 nM
CN(Cc1ccc(CN2CCCC2)cc1)C(=O)c1coc(CN(C2CC2)S(=O)(=O)c2ccccc2C(F)(F)F)n1 [Ex 222, 2-[(Cyclopropyl{[2-(trifluoromethyl)phenyl]sulfonyl}amino)methyl]-N-methyl-N-[4-(pyrrolidin-1-ylmethyl)benzyl]-1,3-oxazole-4-carboxamide trifluoroacetate]	100 to 1000 nM
COc1cc(C)c(S(=O)(=O)N(Cc2nc(C(=O)N3CCN(Cc4c[nH]c(C)n4)CC3)co2)C2CC2)c(C)c1 [Ex 250, N-Cyclopropyl-4-methoxy-2,6-dimethyl-N-{[4-({4-[(2-methyl-1H-imidazol-4-yl)methyl]piperazin-1-yl}carbonyl)-1,3-oxazol-2-yl]methyl}benzenesulfonamide]	< 10 nM
COc1cc(C)c(S(=O)(=O)N(Cc2nc(C(=O)N(C)Cc3nnc(CN4CCCC4)s3)co2)C2CC2)c(C)c1 [Ex 199, 2-({Cyclopropyl[(4-methoxy-2,6-dimethylphenyl)sulfonyl]amino}methyl)-N-methyl-N-{[5-(pyrrolidin-1-ylmethyl)-1,3,4-thiadiazol-2-yl]methyl}-1,3-oxazole-4-carboxamide trifluoroacetate]	< 10 nM
COc1cc(C)c(S(=O)(=O)N(C)Cc2nnc(C(=O)N(C)Cc3ccc(CN4CCCC(OC)C4)cc3)o2)c(C)c1 (centres unmarked) [Ex 284, 5-({[(4-Methoxy-2,6-dimethylphenyl)sulfonyl](methyl)amino}methyl)-N-{4-[(3-methoxypiperidin-1-yl)methyl]benzyl}-N-methyl-1,3,4-oxadiazole-2-carboxamide]	100 to 1000 nM
COc1cc(C)c(S(=O)(=O)N(C)Cc2cc(C(=O)N(C)Cc3ccc(CN4CCC(OC)CC4)cc3)co2)c(C)c1 [Ex 127, 5-({[(4-Methoxy-2,6-dimethylphenyl)sulfonyl](methyl)amino}methyl)-N-{4-[(4-methoxypiperidin-1-yl)methyl]benzyl}-N-methylfuran-3-carboxamide]	10 to 100 nM
COc1cc(C)c(S(=O)(=O)N(C)Cc2cc(C(=O)N(C)Cc3ccc(CN4CC(OC)C4)cc3)co2)c(C)c1 [Ex 133, N-{4-[(3-Methoxyazetidin-1-yl)methyl]benzyl}-5-({[(4-methoxy-2,6-dimethylphenyl)sulfonyl](methyl)amino}methyl)-N-methylfuran-3-carboxamide]	100 to 1000 nM
